{"source": "patent US7199099B2", "about": "“Methanobactin: a copper binding compound having antibiotic and antioxidant activity isolated from methanotrophic bacteria” (priority 2002, dated 2007)", "key": {"Candida albicans, X657": {"tested_on": "Candida albicans, X657", "test": "Antimicrobial activity, Candida albicans X657", "assay_type": "cell-based", "settings": "purified methanobactin"}, "gram-negative bacteria": {"tested_on": "gram-negative bacteria", "test": "Activity against gram-negative bacteria", "assay_type": "cell-based"}, "[1]": {"assay_type": "physicochemical", "text": "Solution properties of the methanobactin varied with metal binding and pH."}, "Escherichia coli, X161": {"tested_on": "Escherichia coli, X161", "test": "Antimicrobial activity, Escherichia coli X161", "assay_type": "cell-based", "settings": "purified methanobactin", "procedure": "(§1) Enterococcus fecalus was cultured aerobically on Brain Heart Infusion broth at 37° C., Staphyloccus aureus, Escherichia coli, X161, and Bacillus thuringiensis were cultured aerobically on Lauria-Burtani broth at 37° C., and Listeria monocytogenes was grown on Trypticase soy broth containing 0.6% yeast extract at 35° C. Minimum inhibitory concentrations were determined as previously described (A. F. Mendoca and S. J. Knabel. 1994. A novel strictly anaerobic recovery and enrichment system incorporating lithium for detection of heat-injured Listeria monocytogenes in pasteurized milk containing background microflora. Appl. Environ. Microbiol. 60: 4001–4008)."}, "washed cell suspensions": {"tested_on": "washed cell suspensions", "test": "Oxygen uptake activity of washed cell suspensions", "assay_type": "cell-based", "procedure": "Oxygen uptake activity of washed cell suspensions was determined with a Clark oxygen electrode maintained at a constant water temperature of 37° C. Cell samples containing methanobactin were preincubated 5 minutes at 37° C. before the addition of substrate."}, "Micrococcus luteus X186": {"tested_on": "Micrococcus luteus X186", "assay_type": "cell-based"}, "gram-positive bacteria": {"tested_on": "gram-positive bacteria", "test": "Bacteriocidal activity against gram-positive bacteria", "assay_type": "cell-based, Staphylococci, Streptococci and Enterococci", "settings": "including vancomycin resistant and methicillin-resistant strains", "procedure": "as §1"}}}
{"compound": "CSCC[C@H](NC(=O)[C@@H]1CSSC[C@H](NC(=O)[C@H](CO)NC(=O)CN/C(S)=C2/N=C(C(=O)CC(C)C)OC2=O)C(=O)N[C@@H](Cc2ccc(O)cc2)C(=O)N2CCC[C@H]2C2=N/C(=C(\\S)N[C@@H](CO)C(=O)N1)C(=O)O2)C(=O)O", "note": "[methanobactin, N-2-isopropylester-(4-thionyl-5-hydroxy-imidazole)-Gly^1-Ser^2-Cys^3-Tyr^4-pyrrolidine-(4-thionyl-5-hydroxy-imidazole)-Ser^5-Cys^6-Met^7]", "values": [{"measurement": "Antimicrobial Activity", "setting": "Candida albicans, X657", "result": 0}, {"measurement": "effectiveness against gram-negative bacteria", "setting": "gram-negative bacteria; methanobactin by itself", "result": "not been found to be effective"}, {"measurement": "activity against gram negative bacteria in combination with a metal chelator", "setting": "gram-negative bacteria; with EDTA, at least about 1:1 methanobactin to EDTA", "result": "bacteriocidal"}, {"measurement": "solubility", "setting": "[1]", "result": "very soluble"}, {"measurement": "Antimicrobial Activity", "setting": "Escherichia coli, X161", "result": 0}, {"measurement": "effect on respiration", "setting": "washed cell suspensions; higher concentrations", "result": "respiratory inhibitor"}, {"measurement": "effect on respiration", "setting": "washed cell suspensions; low concentrations", "result": "respiratory uncoupler"}, {"measurement": "MIC", "setting": "Micrococcus luteus X186", "result": 24, "unit": "µg/mL"}, {"measurement": "bacteriocidal activity against gram-positive bacteria", "setting": "gram-positive bacteria", "result": "bacteriocidal activity"}]}
